# Test results: PubChem BioAssay (NCI)
#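 Exposure lasted 48 hours, with cells grown in 96-well plates and compounds tested at five concentrations. At the GI50, growth is halved. TGI marks complete inhibition of growth.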
# Columns and labels:
# Assay in all cases: NCI-60 cell line screen, 48 h
# SK-MEL-28 melanoma = tested on: SK-MEL-28 melanoma
# HCC-2998 colon = tested on: HCC-2998 colon
# TK-10 renal = tested on: TK-10 renal
# LOX IMVI melanoma = tested on: LOX IMVI melanoma
# SW-620 colon = tested on: SW-620 colon
# SK-OV-3 ovarian = tested on: SK-OV-3 ovarian
# A549 NSCLC = tested on: A549 NSCLC
# UACC-62 melanoma = tested on: UACC-62 melanoma
# SF-295 CNS = tested on: SF-295 CNS
# NCI/ADR-RES ovarian = tested on: NCI/ADR-RES ovarian
# NCI-H23 lung = tested on: NCI-H23 lung
# HOP-92 NSCLC = tested on: HOP-92 NSCLC
# EKVX NSCLC = tested on: EKVX NSCLC
# PC-3 prostate = tested on: PC-3 prostate
# HCT-15 colon = tested on: HCT-15 colon
# MOLT-4 leukemia = tested on: MOLT-4 leukemia
# M14 melanoma = tested on: M14 melanoma
# T-47D breast = tested on: T-47D breast
# COLO 205 colon = tested on: COLO 205 colon
# DU-145 prostate = tested on: DU-145 prostate
# U251 CNS = tested on: U251 CNS
# SNB-75 CNS = tested on: SNB-75 CNS
# RXF 393 renal = tested on: RXF 393 renal
# OVCAR-8 ovarian = tested on: OVCAR-8 ovarian
# SNB-19 CNS = tested on: SNB-19 CNS
# OVCAR-3 ovarian = tested on: OVCAR-3 ovarian
# SF-539 CNS = tested on: SF-539 CNS
# BT-549 breast = tested on: BT-549 breast
# 786-0 renal = tested on: 786-0 renal
# NCI-H226 lung = tested on: NCI-H226 lung
# MDA-MB-231 breast = tested on: MDA-MB-231 breast
# KM12 colon = tested on: KM12 colon
# UACC-257 melanoma = tested on: UACC-257 melanoma
# RPMI-8226 leukemia = tested on: RPMI-8226 leukemia
# MCF7 breast = tested on: MCF7 breast
# A498 renal = tested on: A498 renal
# CCRF-CEM leukemia = tested on: CCRF-CEM leukemia
# SK-MEL-2 melanoma = tested on: SK-MEL-2 melanoma
# SN12C renal = tested on: SN12C renal
# NCI-H460 lung = tested on: NCI-H460 lung
# HL-60(TB) leukemia = tested on: HL-60(TB) leukemia
# K-562 leukemia = tested on: K-562 leukemia
# NCI-H522 lung = tested on: NCI-H522 lung
# IGROV1 ovarian = tested on: IGROV1 ovarian
# SK-MEL-5 melanoma = tested on: SK-MEL-5 melanoma
# HOP-62 NSCLC = tested on: HOP-62 NSCLC
# HT29 colon = tested on: HT29 colon
# UO-31 renal = tested on: UO-31 renal
# ACHN renal = tested on: ACHN renal
# HCT-116 colon = tested on: HCT-116 colon
# MDA-MB-435 = tested on: MDA-MB-435
# SF-268 CNS = tested on: SF-268 CNS
# HS 578T breast = tested on: HS 578T breast
# OVCAR-5 ovarian = tested on: OVCAR-5 ovarian
# OVCAR-4 ovarian = tested on: OVCAR-4 ovarian
# CAKI-1 renal = tested on: CAKI-1 renal
structure (smiles),measurement,setting,value
Cc1ccc2c(c1)n([O-])c(C(F)(F)F)c(C(=O)c1ccco1)[n+]2=O,GI50,SK-MEL-28 melanoma,4.16 µM
same,TGI,SK-MEL-28 melanoma,23.6 µM
same,GI50,HCC-2998 colon,0.716 µM
same,TGI,HCC-2998 colon,1.67 µM
same,GI50,TK-10 renal,1.94 µM
same,TGI,TK-10 renal,8.74 µM
same,GI50,LOX IMVI melanoma,0.176 µM
same,TGI,LOX IMVI melanoma,0.93 µM
same,GI50,SW-620 colon,0.966 µM
same,TGI,SW-620 colon,8.15 µM
same,GI50,SK-OV-3 ovarian,1.59 µM
same,TGI,SK-OV-3 ovarian,7.39 µM
same,GI50,A549 NSCLC,0.965 µM
same,TGI,A549 NSCLC,3.35 µM
same,GI50,UACC-62 melanoma,0.723 µM
same,TGI,UACC-62 melanoma,1.61 µM
same,GI50,SF-295 CNS,0.457 µM
same,TGI,SF-295 CNS,1.97 µM
same,GI50,NCI/ADR-RES ovarian,0.74 µM
same,TGI,NCI/ADR-RES ovarian,3.55 µM
same,GI50,NCI-H23 lung,0.433 µM
same,TGI,NCI-H23 lung,1.52 µM
same,GI50,HOP-92 NSCLC,0.0556 µM
same,TGI,HOP-92 NSCLC,0.445 µM
same,GI50,EKVX NSCLC,0.719 µM
same,TGI,EKVX NSCLC,2.88 µM
same,GI50,PC-3 prostate,0.306 µM
same,TGI,PC-3 prostate,4.82 µM
same,GI50,HCT-15 colon,0.562 µM
same,TGI,HCT-15 colon,7.62 µM
same,GI50,MOLT-4 leukemia,14.6 µM
same,TGI,MOLT-4 leukemia,50 µM
same,GI50,M14 melanoma,1.3 µM
same,TGI,M14 melanoma,6.55 µM
same,GI50,T-47D breast,0.472 µM
same,TGI,T-47D breast,4.18 µM
same,GI50,COLO 205 colon,0.816 µM
same,TGI,COLO 205 colon,2.06 µM
same,GI50,DU-145 prostate,0.564 µM
same,TGI,DU-145 prostate,1.33 µM
same,GI50,U251 CNS,0.632 µM
same,TGI,U251 CNS,5.15 µM
same,GI50,SNB-75 CNS,1.4 µM
same,TGI,SNB-75 CNS,6.07 µM
same,GI50,RXF 393 renal,0.622 µM
same,TGI,RXF 393 renal,2.91 µM
same,GI50,OVCAR-8 ovarian,0.684 µM
same,TGI,OVCAR-8 ovarian,2.64 µM
same,GI50,SNB-19 CNS,1.47 µM
same,TGI,SNB-19 CNS,6.82 µM
same,GI50,OVCAR-3 ovarian,0.573 µM
same,TGI,OVCAR-3 ovarian,1.75 µM
same,GI50,SF-539 CNS,0.918 µM
same,TGI,SF-539 CNS,2.67 µM
same,GI50,BT-549 breast,0.627 µM
same,TGI,BT-549 breast,4.21 µM
same,GI50,786-0 renal,1.22 µM
same,TGI,786-0 renal,6.59 µM
same,GI50,NCI-H226 lung,0.755 µM
same,TGI,NCI-H226 lung,2.09 µM
same,GI50,MDA-MB-231 breast,0.929 µM
same,TGI,MDA-MB-231 breast,2.65 µM
same,GI50,KM12 colon,0.667 µM
same,TGI,KM12 colon,2.49 µM
same,GI50,UACC-257 melanoma,0.924 µM
same,TGI,UACC-257 melanoma,3.12 µM
same,GI50,RPMI-8226 leukemia,0.357 µM
same,TGI,RPMI-8226 leukemia,2.69 µM
same,GI50,MCF7 breast,0.762 µM
same,TGI,MCF7 breast,4.9 µM
same,GI50,A498 renal,1.21 µM
same,TGI,A498 renal,3.21 µM
same,GI50,CCRF-CEM leukemia,0.0743 µM
same,TGI,CCRF-CEM leukemia,0.859 µM
same,GI50,SK-MEL-2 melanoma,4.4 µM
same,TGI,SK-MEL-2 melanoma,34.7 µM
same,GI50,SN12C renal,0.833 µM
same,TGI,SN12C renal,2.5 µM
same,GI50,NCI-H460 lung,0.262 µM
same,TGI,NCI-H460 lung,1.52 µM
same,GI50,HL-60(TB) leukemia,1.09 µM
same,TGI,HL-60(TB) leukemia,21.8 µM
same,GI50,K-562 leukemia,1.1 µM
same,TGI,K-562 leukemia,34.5 µM
same,GI50,NCI-H522 lung,1.42 µM
same,TGI,NCI-H522 lung,12.5 µM
same,GI50,IGROV1 ovarian,0.205 µM
same,TGI,IGROV1 ovarian,9 µM
same,GI50,SK-MEL-5 melanoma,0.556 µM
same,TGI,SK-MEL-5 melanoma,1.3 µM
same,GI50,HOP-62 NSCLC,0.996 µM
same,TGI,HOP-62 NSCLC,3.85 µM
same,GI50,HT29 colon,2.07 µM
same,TGI,HT29 colon,20.7 µM
same,GI50,UO-31 renal,0.319 µM
same,TGI,UO-31 renal,1.81 µM
same,GI50,ACHN renal,0.217 µM
same,TGI,ACHN renal,1 µM
same,GI50,HCT-116 colon,0.994 µM
same,TGI,HCT-116 colon,12.7 µM
same,GI50,MDA-MB-435,0.744 µM
same,TGI,MDA-MB-435,2.65 µM
same,GI50,SF-268 CNS,0.42 µM
same,TGI,SF-268 CNS,2.48 µM
same,GI50,HS 578T breast,1.2 µM
same,TGI,HS 578T breast,7.73 µM
same,GI50,OVCAR-5 ovarian,1.72 µM
same,TGI,OVCAR-5 ovarian,9.03 µM
same,GI50,OVCAR-4 ovarian,0.627 µM
same,TGI,OVCAR-4 ovarian,1.89 µM
same,GI50,CAKI-1 renal,0.0845 µM
same,TGI,CAKI-1 renal,0.448 µM
